US11325937B2, “Glycoside compound and preparation method therefor, composition, application, and intermediate” (SHANGHAI HUTCHISON PHARMACEUTICALS LIMITED, priority 2018, dated 2022)
Like-named read-outs stand apart in the source and are kept apart here.

How the values were obtained:
[1] = tested on: rats with middle cerebral artery occlusion (MCAO); test: Acute cerebral infarction model in rats with middle cerebral artery occlusion (MCAO); format: in vivo, male SD rats; conditions: MCAO
Source text: After obtaining the active molecules that can promote the expression of VEGF-A mRNA in the animal model of inflammatory angiogenesis, a rat model of cerebral infarction was used for further verification. Following the method as described in Longa, E. Z., Longa, E. Z., Weinstein, P. R., Carlson, S. & Commin, R. Reversible middle cerebral artery occlusion without craniectomy in rats. [J]. Stroke, 1989. 1: 84-91, an acute cerebral infarction model was established in rats with middle cerebral artery occlusion (MCAO); and following the method as described in C. dela Torre, T. Fortin, G. A. S. Park, K. S. Butler, P. Kozlowski, B. A. Pappas, H. de Socarraz, J. K. Saunders and M. T. Richard. [J]. Brain Research, 1992. 582:186-195, a chronic cerebral ischemia model was established in rats with permanent ligation of bilateral common carotid arteries (2VO). The inhibition on cerebral infarction and neuroprotection for brain injury of the active molecules screened in Effect Example 2 were verified.
The control drugs were: Edaravone (purchased from Zhejiang Shengtong Biotechnology Co., Ltd.), Clopidogrel bisulfate (purchased from Wuhan Yuancheng Gongchuang Technology Co., Ltd.), and Salvianolate (purchased from Henan Provincial People's Hospital). Clopidogrel bisulfate is a platelet aggregation inhibitor, and Edaravone is a brain protectant (free radical scavenger). The MCAO model of rats was made by the thread occlusion method. The rats used in this effect example were male SD rats weighing 280-320 grams, purchased from Shanghai SLAC Laboratory Animal Co., Ltd. Five SD (Sprague Dawley) rats in each group were administered by intraperitoneal injection, 2 h before surgery, and every 24 h after modeling.
Three days later, the brain was taken, and the rat brain was stained with TTC (2,3,5-triphenyltetrazolium chloride, to detect the cell viability) and then photographed. Infarction rate (%)=(Non-infarction area of right brain section−non-infarction area of left brain section)/total area of brain section*100%. According to t tests, *P<0.05, **P<0.01, ***P<0.001 compared with the model group (MCAO). Infarction inhibition rate (%) at different doses=(infarction rate of model group-infarction rate of treatment group)/infarction rate of model group*100%. The infarction inhibition rate at different doses was plotted, and the ED50 of the drug was calculated.
Moreover, the body weight of the rats was recorded. The rate of body weight change was calculated according to a formula: Rate of body weight change (%)=(final weight-initial weight)/[…].
Three days after the acute cerebral infarction model was established in rats with MCAO, the test rats were scored for neurological function according to the Longa nerve scoring standard.
Three days after the acute cerebral infarction model of MCAO was established in rats, the intact brain tissue was taken out, olfactory bulb and the brain tissue that is 4 mm in front of the frontal pole was removed, and the immediately adjacent brain tissue of 2 mm thick was taken for water content measurement in the brain. The water content in brain tissue is calculated by the formula: (WW−DW)/WW×100%, where WW is the wet weight and DW is the dry weight. Three days after the acute cerebral infarction model of MCAO was established in rats, the brain tissue was stained with Evans Blue (EB, a commonly used azo dye preparation) to evaluate the permeability across the blood-brain barrier (BBB), so as to evaluate the integrity of blood-brain barrier. Both experiments were tested with the optimal dose of each drug previously determined: TG-028 (5 mg/Kg), Salvianolate (20 mg/Kg), Clopidogrel bisulfate (40 mg/Kg), Edaravone (40 mg/Kg).

[2] = tested on: VEGF-A mRNA expression in macrophages (RAW264.7); test: In vitro macrophage experiment: activity of compounds to promote VEGF-A mRNA expression (RT-qPCR); format: cell-based; conditions: Mus musculus, read-out: Expression level of VEGF-A mRNA
Source text: 1.1. Specific steps for activity screening: 1-10×10^6 macrophages (RAW264.7) in logarithmic growth phase were transferred to a cell culture plate. The test compounds (Compounds TG-001, TG-002, TG-003, TG-004, TG-005, TG-006, TG-007, TG-008, TG-009, TG-010, TG-011, TG-012, TG-013, TG-014, TG-015, TG-016, TG-017, TG-018, TG-019, TG-020, TG-021, TG-022, TG-023, TG-024, TG-025, TG-026, TG-027, TG-028, TG-029, TG-030, TG-031, TG-032, TG-033, TG-034, TG-035, TG-036, TG-037, TG-045, TG-039, TG-040 TG-041, TG-042, TG-043, TG-044, TG-045, TG-052, TG-053, TG-054, TG-047, TG-048, TG-046, TG-049, TG-050, TG-051, TG-055 and TG-056) were respectively diluted into various concentrations, and separately added to the cell culture plate containing macrophage. The cells were cultured for 3 h in a complete medium (RPMI 1640 medium:fetal bovine serum:tri-resistance screening agent (i.e. penicillin-streptomycin-gentamicin, Beijing Leagene Biotechnology Co., Ltd.)=89:10:1 based on volume) in a cell incubator at 37° C. and 5% CO2. The cells were lyzed by Trizol (Beijing ComWin Biotech Co., Ltd) to extract RNA, and the RNA concentration was measured using a microvolume nucleic acid and protein analyzer (Nanodrop2000c). The required volume V of RNA was calculated according to the RNA concentration, and the RNA reverse transcription reaction system was prepared according to Table 1. Then RNA reverse transcription (cDNA synthesis) (RT Easy™ I (For first-strand cDNA synthesis) Reverse Transcription Kit, Chengdu ForeGene Biotechnology Co., Ltd.) was carried out according to the conditions described in Table 2. The resulting cDNA was used to prepare a fluorescence quantitative PCR reaction solution according to Table 3. The fluorescence quantitative PCR reaction conditions were set according to Table 4, and the fluorescence quantitative PCR reaction (Real time PCR Easy™-SYBR Green Fluorescence Quantification Kit, Chengdu ForeGene Biotechnology Co., Ltd.) was performed using cDNA from the reverse transcription reaction as a template. The relative expression level 2^−ΔΔCt of the target gene was calculated from the Ct value of each sample with the blank control group as a control and β-Actin as an internal reference.
Based on the maximum level of VEGF-A mRNA expression promoted by a drug at a certain concentration, the activity of the drug was determined. The expression level of VEGF-A mRNA in macrophages was defined as 1 when no drug was added. Using a traditional Chinese medicine injection Salvianolate that is used in the treatment of Cardio-cerebrovascular disease and promotes a maximum level of VEGF-A mRNA expression of 6 in macrophages (the results are shown in Table 5) as a judgment standard, the compound promoting a maximum level of VEGF-A mRNA expression of 4 or more in macrophage was a target compound. That is, when the maximum level of VEGF-A mRNA expression in macrophages promoted by the test compound is over 4-fold higher than the expression level of VEGF-A mRNA in macrophages without the addition of the test compound, the test compound was a preliminary target compound promoting angiogenesis.

[3] = 1 μM, RAW264.7 macrophages, 3 h, relative expression 2^-ΔΔCt, no drug = 1
[4] = 0.1 mM, RAW264.7 macrophages, 3 h, relative expression, no drug = 1
[5] = 0.5 mM, RAW264.7 macrophages, 3 h, relative expression, no drug = 1
[6] = 1 mM, RAW264.7 macrophages, 3 h, relative expression, no drug = 1
[7] = 2 mM, RAW264.7 macrophages, 3 h, relative expression, no drug = 1
[8] = 3 mM, RAW264.7 macrophages, 3 h, relative expression, no drug = 1

With `COc1cc(CCCCO[C@@H]2O[C@H](CO)[C@@H](O)[C@H](O)[C@H]2O)ccc1O` [TG-057] the “Longa nerve scoring, protective effect on nerves (in words)” value ([1]; 5 mg/kg, FIG. 20) was “has a protective effect on nerves in rats after brain injury, but the effect is not as strong as that of TG-028” and the “effect of inhibiting cerebral infarction (in words)” value ([1]; 5 mg/kg, FIG. 20) was “has the effect of inhibiting cerebral infarction in the rats”.

With `COC(=O)[C@H](c1ccccc1Cl)N1CCc2sccc2C1` [Clopidogrel bisulfate, reference compound] the ED50 ([1]; Rattus norvegicus, ip, 72 h, intraperitoneal injection, TTC staining after 3 days, read-out: ED50 for infarction inhibition rate (%)) was 28.1 mg/kg.

In the case of `COc1ccc(N(CCCO[C@@H]2O[C@H](CO)[C@@H](O)[C@H](O)[C@H]2O)C(=O)OCc2ccccc2)cc1` [TG-035], the fold induction at 1 µM ([2]; RAW264.7, 3 h) is reported as 1.66, the fold induction at 100 µM ([2]; RAW264.7, 3 h) is reported as 0.44 and the fold induction at 500 µM ([2]; RAW264.7, 3 h) is reported as 1.72. The fold induction at 1000 µM ([2]; RAW264.7, 3 h) was 1.06, the fold induction at 2000 µM ([2]; RAW264.7, 3 h) was 0.55 and the fold induction at 3000 µM ([2]; RAW264.7, 3 h) was 0.2.

For `OC[C@H]1O[C@@H](OCCCCc2ccc(OCC3CCCC3)cc2)[C@H](O)[C@@H](O)[C@@H]1O` [TG-018], the fold induction at 1 µM [2, 3] was 0.88, the fold induction at 100 µM [2, 4] was 3.62 and the fold induction at 500 µM [2, 5] was 4.15. The fold induction at 1000 µM [2, 6] was 5.26, the fold induction at 2000 µM [2, 7] was 7.24 and the fold induction at 3000 µM [2, 8] was 6.53.

`CC(C)(C)COc1ccc(CCCCO[C@@H]2O[C@H](CO)[C@@H](O)[C@H](O)[C@H]2O)cc1` [TG-041] gave a fold induction at 1 µM [2, 3] of 0.62, a fold induction at 100 µM [2, 4] of 0.84 and a fold induction at 500 µM [2, 5] of 1.97. The fold induction at 1000 µM [2, 6] was 8.17, the fold induction at 2000 µM [2, 7] was 0.16 and the fold induction at 3000 µM [2, 8] was 0.23.
